Where a SMILES comes first, the peptide text is derived from it. Bridges are numbered along the chain shown (N, C = ends). Where no end group is shown, it is not given here. [ ]: non-standard residue; d: D form. The star is where a group is joined. R8 = C=CCCCCCC[C@@](C)(N)C(=O)O; S5 = C=CCCC[C@](C)(N)C(=O)O; dNle = CCCC[C@@H](N)C(=O)O; Nle = CCCC[C@H](N)C(=O)O; Octanoyl = CCCCCCCC(=O)*; Sar = CNCC(=O)O
Key:
[1] = target: T1, Pepsin A (Sus scrofa, UniProt P00791); test: LPL activation ability following pepsin treatment; assay type: in vitro ADME; details: 1 mg/ml Pepsin A, pH 1.92, 1 hour at 37° C.; final concentration 10 µM of peptides
T1 construct: purchased Sigma Aldrich P6887-1G
T1 sequence (P00791 60-385): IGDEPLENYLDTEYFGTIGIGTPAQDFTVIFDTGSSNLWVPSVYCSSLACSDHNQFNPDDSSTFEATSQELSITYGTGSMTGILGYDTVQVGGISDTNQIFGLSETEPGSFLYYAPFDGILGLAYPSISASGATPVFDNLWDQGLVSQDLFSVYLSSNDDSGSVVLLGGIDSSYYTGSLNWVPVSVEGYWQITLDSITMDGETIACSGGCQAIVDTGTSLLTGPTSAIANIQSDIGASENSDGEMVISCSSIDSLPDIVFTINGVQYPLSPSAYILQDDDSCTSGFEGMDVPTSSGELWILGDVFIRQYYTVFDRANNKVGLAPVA
Experimental: (§1) LPL activity was determined by measuring the generation of NEFA. In a 96-well plate, 0-10 μM of an apoC-II mimetic peptide, 7.45 nM of LPL from bovine milk (Sigma-Aldrich), apoC-II deficient ethylenediaminetetraacetic acid (EDTA)-plasma (diluted with PBS to a final TG concentration of 3 mg/dL), 10 IU/ml heparin, 1% bovine serum albumin (BSA) (ICN Biomedicals), and PBS (Life Technologies) were combined in a final reaction volume of 50 μL, pre-incubated on ice for 30 minutes, and incubated at 37° C. for 1 hour. NEFA were measured with a coupled enzyme reaction (FUJIFILM Wako Diagnostics), in a SpectraMax Plus 384 Microplate Reader.
Peptide resistance to proteolysis was also tested. Peptides at 0.1 mM concentration were incubated at 37° C. in 20 mM ammonium bicarbonate buffer at pH 8.2 with 10 μg/ml trypsin or […] Proteinase K. The amount of intact peptide was monitored over 24-hour time period by MALDI-TOF using internal standards (Bombesin, ACTH (1-17), ACTH (18-39), and Insulin) to quantify the relative amount of peptide in each sample. As shown in FIGS. 16A-16D, the tested peptides had varying degrees of resistance to trypsin and proteinase K. In addition, peptides were tested for LPL activation ability following pepsin treatment. Peptides (1 mM stock) were prepared in 5 mM TRIS, pH 8.2. […] In vitro generated NEFA were measured by the colorimetric assay.

[2] = target: T2, LPL from bovine milk (Bos taurus, UniProt P11151); test: LPL activation assay (generation of NEFA); assay type: biochemical; details: 0-10 μM peptide, 7.45 nM LPL, apoC-II deficient plasma, 37° C. for 1 hour, NEFA measured
T2 construct: 7.45 nM of LPL from bovine milk (Sigma-Aldrich); purchased Sigma-Aldrich; host or cells: bovine milk
T2 sequence (P11151 29-478): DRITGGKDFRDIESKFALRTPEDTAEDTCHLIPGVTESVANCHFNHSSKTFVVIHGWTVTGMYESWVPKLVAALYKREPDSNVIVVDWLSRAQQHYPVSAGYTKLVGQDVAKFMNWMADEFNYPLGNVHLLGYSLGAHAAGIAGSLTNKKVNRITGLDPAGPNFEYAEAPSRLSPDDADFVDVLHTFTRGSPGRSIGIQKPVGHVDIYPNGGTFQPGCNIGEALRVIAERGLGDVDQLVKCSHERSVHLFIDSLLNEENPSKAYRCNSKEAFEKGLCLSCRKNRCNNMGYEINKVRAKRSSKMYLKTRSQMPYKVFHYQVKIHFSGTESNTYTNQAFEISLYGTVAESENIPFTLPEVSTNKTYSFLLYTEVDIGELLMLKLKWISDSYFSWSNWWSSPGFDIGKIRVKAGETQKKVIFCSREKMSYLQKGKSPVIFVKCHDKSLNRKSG
Experimental: as §1

[3] = DMPC vesicle solubilization assay; details: 0.5 mM peptides, DMPC vesicles 0.5 mg/mL in PBS pH 7.4, absorbance at 660 nm for 1 hour at 24° C.
Experimental: Tested peptides were able to solubilize DPMC vesicles (FIG. 15). […] PBS as a negative control or 1% Triton as a positive control or 0.5 mM peptides were added to homogenous DMPC (Avanti 850345C) vesicles (0.5 mg/mL) in PBS, pH 7.4. In vitro turbidity change was monitored by following the absorbance at 660 nm for 1 hour at 24° C. Absorbance over time was plotted and the areas under the curve (AOC) were calculated.

[4] = system: apoC-II knockout mice; test: Peptide activity in vivo in apoC-II knockout mice; details: single intraperitoneal injection 5 μmole/kg, blood at 1, 3, 6 and 24 hours; for triglycerides: compared to control
Experimental: A study was performed comparing the effect of D6-PV (SEQ ID NO: 15) and SPH2S (SEQ ID NO: 5) peptides in apoC-II knockout mice. Mice were given a single intraperitoneal injection of the peptide (5 μmole/kg) and blood was collected at 1 hour, 3 hours, 6 hours and 24 hours after injection. Triglycerides, total cholesterol, and non-esterified fatty acids (NEFA) were measured.

Row | efficacy for activation of LPL [2] | Molecule | also measured
1 | did not affect LPL activation | CCCC[C@H](NC(=O)[C@H](C)NC(C)=O)C(=O)N[C@]1(C)CCCCCCC=CCCC[C@@](C)(C(=O)N[C@@H](CC(=O)O)C(=O)N[C@@H](CCC(N)=O)C(=O)N[C@H](C(=O)N[C@@H](CC(C)C)C(=O)N[C@@H](CO)C(=O)N[C@H](C(=O)N[C@@H](CC(C)C)C(=O)N[C@@H](CCCCN)C(=O)N(C)CC(=O)N[C@H](CCC(=O)O)C(=O)N[C@H](CCC(=O)O)C(=O)O)C(C)C)C(C)C)NC(=O)[C@H](Cc2ccccc2)NC(=O)[C@H]([C@@H](C)CC)NC(=O)CNC(=O)[C@H]([C@@H](C)O)NC(=O)[C@H](Cc2ccc(O)cc2)NC(=O)[C@H]([C@@H](C)O)NC1=O [SEQ ID NO: 34, Ac-A(Nle)(R8)TYTGIF(S5)DQVLSVLK(Sarcosine)ee] (Ac-A[Nle][R8]TYTGIF[S5]DQVLSVLK[Sar][dE][dE]-OH; staple 3-10; C-terminus assumed) | LPL activation after pepsin treatment [1]: showed resistance to pepsin treatment
2 | did reduce the efficacy | EK(R8)RDLYSK(S5)TAAFSTYFGIFTDQVLSVLKGEE (EK[R8]RDLYSK[S5]TAAFSTYFGIFTDQVLSVLKGEE; staple 3-10) [SEQ ID NO: 25] | 
3 | did not affect peptide efficacy | EK(R8)RDLYSK(S5)TAAFSTYTFIFTDQVLSVLKGEE (EK[R8]RDLYSK[S5]TAAFSTYTFIFTDQVLSVLKGEE; staple 3-10) [SEQ ID NO: 26] | 
4 | did not affect LPL activation | Octanoic -A(Nle)(R8)TYTGIF(S5)DQVLSVLK(Sarcosine)ee [SEQ ID NO: 37] | 
5 | decreased peptide activity | Octanoic-(R8)TYTGIF(S5)DQVLSVLK(Sarcosine)eeee (Octanoyl-[R8]TYTGIF[S5]DQVLSVLK[Sar][dE][dE][dE][dE]; staple 1-8) [SEQ ID NO: 39] | 
6 | decreased LPL activation abilities | a(nle)(R8)TYTGIF(S5)DQVLSVLK(Sarcosine)ee ([dA][dNle][R8]TYTGIF[S5]DQVLSVLK[Sar][dE][dE]; staple 3-10) [SEQ ID NO: 35] | 

Further lines, the molecule ahead of its results:

Row | Molecule | efficacy for activation of LPL [2] | also measured
7 | CCCC[C@H](NC(=O)[C@H](C)N)C(=O)N[C@]1(C)CCCCCCC=CCCCC2(CCCC=CCCCCCC[C@@](C)(C(=O)N[C@@H](CCCCN)C(=O)N(C)CC(=O)N[C@H](CCC(=O)O)C(=O)N[C@H](CCC(=O)O)C(=O)O)NC(=O)[C@H](C(C)C)NC(=O)[C@H](CO)NC(=O)[C@H](CC(C)C)NC(=O)[C@H](C(C)C)NC(=O)[C@H](CCC(N)=O)NC(=O)[C@H](CC(=O)O)NC2=O)NC(=O)[C@H](Cc2ccccc2)NC(=O)[C@H]([C@@H](C)CC)NC(=O)CNC(=O)[C@H]([C@@H](C)O)NC(=O)[C@H](Cc2ccc(O)cc2)NC(=O)[C@H]([C@@H](C)O)NC1=O (stereo partly drawn) [SEQ ID NO: 18, A(Nle)(R8)TYTGIF(B5)DQVLSV(S8)K(Sarcosine)ee-COOH] |  | LPL activation after pepsin treatment [1]: showed resistance to pepsin treatment
8 | AMSTYTGIFTDQVLSVLKGEE [SEQ ID NO: 14, truncated ApoC-II peptide] |  | solubilization of DMPC vesicles [3]: did not
9 | DYLKEVFEKLRDLYEKFTPAVSTYTGIFTDQVLSVLKGEE [SEQ ID NO: 15, control D6-PV peptide, reference compound] |  | triglycerides [4]: decreased triglycerides to a similar extent
10 | STAAM(R8)TYTGIF(S5)DQVLSVLKGEE (STAAM[R8]TYTGIF[S5]DQVLSVLKGEE; staple 6-13) [SEQ ID NO: 5] | increased efficacy | non-esterified fatty acids (NEFA) [4]: more effective than D6-PV; total cholesterol [4]: more effective than D6-PV at decreasing total cholesterol; triglycerides [4]: decreased triglycerides to a similar extent
11 | a(nle)(R8)TYTGIF(S5)DQVLSVLk(Sarcosine)ee ([dA][dNle][R8]TYTGIF[S5]DQVLSVL[dK][Sar][dE][dE]; staple 3-10) [SEQ ID NO: 36] | decreased LPL activation abilities | 

Source: US20240309065A1, “SHORT APOC-II MIMETIC PEPTIDES AND METHODS OF USE” (The United States of America, as represented by the …, priority 2021, published 2024)
